This passage reports logD results from the SangsterLogP compilation.

The series is described as follows: method code SF-AS, from DOI: 10.1021/jm00146a003, PMID: 4020837. Conditions: pH 7.4.

The logD is the decadic logarithm of the distribution of all forms, ionised or not, between an organic phase and buffer at a given pH. `COCC(O)Cn1cnc(I)c1[N+](=O)[O-]` (centres undefined) returned a logD of 0.89. In the case of `Cn1cnc([N+](=O)[O-])c1I`, the logD is 1. The same measure for `CCOC(=O)Cn1cnc([N+](=O)[O-])c1I`: 0.57; for `Cn1cnc(I)c1[N+](=O)[O-]`: 1.29; for `CCOC(=O)Cn1cnc(I)c1[N+](=O)[O-]`: 0.93. The same measure for `O=C(Cn1cnc([N+](=O)[O-])c1I)NCc1ccc[n+]([O-])c1`: -1.4. The figure for `COCC(O)Cn1cnc([N+](=O)[O-])c1I` (centres undefined) is 0.41. Consider `O=C(Cn1cnc([N+](=O)[O-])c1I)Nc1cccnc1`, for which the logD was 0.46. As for `O=[N+]([O-])c1nc[nH]c1I`, the logD amounted to 0.28.
